# From patent US9756858B2, “Insecticides” (Syngenta Participations AG, priority 2011, dated 2017)
# Legend:
# Format in all cases: in vivo
# [1] = tested on: Myzus persicae (green peach aphid); experiment: Activity against Myzus persicae (mixed population, feeding/residual contact, preventive); conditions: foliar, 144 h, sunflower leaf discs, 6 days incubation
# Experimental: Example B4: Activity Against Myzus Persicae (Green Peach Aphid) (mixed population, feeding/residual contact activity, preventive) Sunflower leaf discs were placed on agar in a 24-well microtiter plate and sprayed with test solutions. After drying, the leaf discs were infested with an aphid population of mixed ages. After an incubation period of 6 days, samples were checked for mortality and special effects (e.g. phytotoxicity).
# [2] = tested on: Myzus persicae (green peach aphid); experiment: Activity against Myzus persicae (mixed population, systemic/feeding, curative); conditions: 144 h, roots of pea seedlings in test solution, 6 days
# Text: Example B5: Activity Against Myzus persicae (Green Peach Aphid) (mixed population, systemic/feeding activity, curative) Roots of pea seedlings, infested with an aphid population of mixed ages, were placed directly in the test solutions. 6 days after introduction, samples were checked for mortality and special effects on the plant.
# [3] = tested on: Tetranychus urticae (two-spotted spider mite); experiment: Activity against Tetranychus urticae (mixed population, feeding/residual contact, preventive); conditions: foliar, 192 h, bean leaf discs, 8 days
# Text: Example B7: Activity Against Tetranychus urticae (Two-Spotted Spider Mite) (mixed population, feeding/residual contact activity, preventive) Bean leaf discs on agar in 24-well microtiter plates are sprayed with test solutions. After drying, the leaf discs are infested with mite populations of mixed ages. 8 days later, discs are checked for egg mortality, larval mortality, and adult mortality.
# [4] = tested on: Plutella xylostella (diamond back moth); experiment: Plutella xylostella (larvicide, feeding/residual contact, preventive); conditions: 200 ppm; artificial diet, L2 larvae, 5 days incubation
# Experimental: Example B3: Plutella xylostella (Diamond Back Moth) (larvicide, feeding/residual contact activity, preventive) 24-well microtiter plate (MTP) with artificial diet was treated with test solutions by pipetting. After drying, the MTP's were infested with larvae (L2) (10-15 per well). After an incubation period of 5 days, samples were checked for larval mortality, antifeedant and growth regulation.
# [5] = tested on: Spodoptera littoralis (Egyptian cotton leafworm); experiment: Activity against Spodoptera littoralis (larvicide, feeding/residual contact, preventive); conditions: 200 ppm; cotton leaf discs, L1 larvae, 3 days after treatment
# Text: Example B1: Activity Against Spodoptera littoralis (Egyptian Cotton Leafworm) (larvicide, feeding/residual contact activity, preventive) Cotton leaf discs were placed on agar in a 24-well microtiter plate and sprayed with test solutions. After drying, the leaf discs were infested with 5 L1 larvae. The samples were checked for mortality, repellent effect, feeding behaviour, and growth regulation 3 days after treatment.
# [6] = tested on: Aphis craccivora; experiment: Activity against Aphis craccivora (mixed population, contact/feeding), comparison with state of the art; conditions: for Death rate (%) after 5 days: pea seedlings, spray
# Experimental: Comparison of the Insecticidal Activity of Compounds According to the Invention with the Structurally Closest Compound from the State of the Art (Compound No. 39 Described on Page 66 of WO2009/149858): Example B8: Activity Against Aphis craccivora (mixed population, contact/feeding) Pea seedlings, infested with an aphid population of mixed ages, were treated with diluted test solutions in a spray chamber. […]
Structure (SMILES),pest or weed control at 200 ppm [1] [%],further results
O=C(NCCC1CS(=O)(=O)C1)c1sc(-c2cccnc2)nc1Cl [Compound 1.094],> 80,
O=C(NCc1ccc2c(c1)OCCO2)c1sc(-c2cccnc2)nc1Cl [Compound 1.038],> 80,
O=C(NC1CSC1)c1sc(-c2cccnc2)nc1Cl [Compound 1.007],> 80,pest or weed control at 24 ppm [2]: > 80%
O=C(Nc1ccc(Oc2ccccc2)nc1)c1sc(-c2cccnc2)nc1Cl [Compound 1.079],> 80,
CON1CCC(NC(=O)c2sc(-c3cccnc3)nc2Cl)CC1 [Compound 1.120],> 80,pest or weed control at 24 ppm [2]: > 80%
O=C(NC1C[S+]([O-])C1)c1sc(-c2cccnc2)nc1Cl (centres unmarked) [Compound 1.089],> 80,
O=C(NC1CCSC1)c1sc(-c2cccnc2)nc1Cl (centres unmarked) [Compound 1.088],> 80,pest or weed control at 24 ppm [2]: > 80%
CC1(NC(=O)c2sc(-c3cccnc3)nc2Cl)CSC1 [Compound 1.143],,pest or weed control at 24 ppm [2]: > 80%
CC(C)(NC(=O)c1sc(-c2cccnc2)nc1Cl)C(=O)c1cccc(Br)c1 [Compound 1.132],,pest or weed control at 200 ppm [3]: > 80%
CN(Cc1ccc(Cl)nc1)C(=O)c1sc(-c2cccnc2)nc1Cl [Compound 1.124],,pest or weed control at 200 ppm [3]: > 80%
Clc1cccc(-c2sc(-c3cccnc3)nc2Cl)n1 [Compound 1.011],> 80,
C#CC(C)(C)NC(=O)c1sc(-c2cccnc2)nc1Cl [Compound 1.152],> 80,
Clc1csc(C2C=CC=NC2c2sc(-c3cccnc3)nc2Cl)n1 (centres unmarked) [Compound 1.001],,activity [4]: over 80%; pest or weed control at 200 ppm [3]: > 80%
CC#CC(C)(C)NC(=O)c1sc(-c2cccnc2)nc1Cl [Compound 1.153],> 80,
O=C(NC1CS(=O)(=O)C1)c1sc(-c2cccnc2)nc1Cl [Compound 1.085],> 80,
CCCCNC(=O)c1sc(-c2cccnc2)nc1Cl [Compound 1.142],> 80,
CC(C)(NC(=O)c1sc(-c2cccnc2)nc1Cl)C(=O)c1ccc(Cl)cc1 [Compound 1.131],,pest or weed control at 200 ppm [3]: > 80%
COC(c1ccc(Cl)cc1Cl)C(C)NC(=O)c1sc(-c2cccnc2)nc1Cl (centres unmarked) [Compound 1.156],,pest or weed control at 200 ppm [3]: > 80%; activity [5]: over 80%
Cc1cc(O)nc(NC(=O)c2sc(-c3cccnc3)nc2Cl)n1 [Compound 1.072],> 80,
COCC(C)(C#N)NC(=O)c1sc(-c2cccnc2)nc1Cl (centres unmarked) [Compound 1.150],> 80,
CC(=O)NCCNC(=O)c1sc(-c2cccnc2)nc1Cl [Compound 1.039],> 80,
COC(=O)c1ccc(NC(=O)c2sc(-c3cccnc3)nc2Cl)nc1 [Compound 1.138],,pest or weed control at 200 ppm [3]: > 80%

Structure (SMILES),pest or weed control at 200 ppm [1] [%],further results
O=C(c1sc(-c2cccnc2)nc1Cl)N1CCC[C@H]1COc1c(Cl)cc(Cl)cc1Cl [Compound 1.096],,pest or weed control at 200 ppm [3]: > 80%
O=C(NC1(C2CC2)CC1)c1sc(-c2cccnc2)nc1Cl [Compound 1.119],> 80,
CC(C)(C)NC(=O)c1sc(-c2cccnc2)nc1Cl [Compound 1.149],> 80,
O=C(NC1CCC1)c1sc(-c2cccnc2)nc1Cl [Compound 1.144],> 80,
O=C(NCC1CCCO1)c1sc(-c2cccnc2)nc1Cl (centres unmarked) [Compound 1.026],> 80,
O=C(Nc1cccc2ncccc12)c1sc(-c2cccnc2)nc1Cl [Compound 1.053],> 80,
CS(=O)(=O)c1ccc(CNC(=O)c2sc(-c3cccnc3)nc2Cl)cc1 [Compound 1.021],> 80,
CSCC(C)(C)NC(=O)c1sc(-c2cccnc2)nc1Cl [Compound 1.086],> 80,pest or weed control at 24 ppm [2]: > 80%
COc1cc(-c2sc(-c3cccnc3)nc2Cl)nc(OC)n1 [Compound 1.160],,pest or weed control at 200 ppm [3]: > 80%
C[S+]([O-])CCNC(=O)c1sc(-c2cccnc2)nc1Cl (centres unmarked) [Compound 1.145],> 80,pest or weed control at 24 ppm [2]: > 80%
COCC#CC(C)(C)NC(=O)c1sc(-c2cccnc2)nc1Cl [Compound 1.130],> 80,
C[C@@H](NC(=O)c1sc(-c2cccnc2)nc1Cl)C(F)(F)F [Compound 1.100],> 80,
CSCCNC(=O)c1sc(-c2cccnc2)nc1Cl [Compound 1.146],> 80,pest or weed control at 24 ppm [2]: > 80%
Cc1cc(NC(=O)c2sc(-c3cccnc3)nc2Cl)n(C)n1 [Compound 1.069],> 80,
O=C(NC1CON(CC(F)(F)F)C1=O)c1sc(-c2cccnc2)nc1Cl (centres unmarked) [Compound 1.095],> 80,pest or weed control at 24 ppm [2]: > 80%
O=C(NCC1CCS1)c1sc(-c2cccnc2)nc1Cl (centres unmarked) [Compound 1.147],> 80,pest or weed control at 24 ppm [2]: > 80%
O=C(NC1C[S+]([O-])C1)c1sc(-c2cccnc2)nc1Cl (centres unmarked) [Compound 1.090],,pest or weed control at 24 ppm [2]: > 80%
O=C(NCCC1CSC1)c1sc(-c2cccnc2)nc1Cl [Compound 1.148],> 80,pest or weed control at 24 ppm [2]: > 80%
O=C(NCC(F)(F)F)c1sc(-c2cccnc2)nc1Cl [Compound 1.005],> 80,"Death rate (%) after 5 days ([6]; 3 ppm): 0%; Death rate (%) after 5 days ([6]; 12.5 ppm): 0%; Death rate (%) after 5 days ([6]; 25 ppm): 30%; Death rate (%) after 5 days ([6]; 50 ppm): 90%; insecticidal action on Aphis craccivora compared with the compound from the state of the art ([6]; comparison with Comp. 39, especially at 25, 12.5 and 3 ppm): substantially better insecticidal action"
CCN1OCC(NC(=O)c2sc(-c3cccnc3)nc2Cl)C1=O (centres unmarked) [Compound 1.093],,pest or weed control at 24 ppm [2]: > 80%
"Cc1nc(-c2cccnc2)sc1C(=O)NCC(F)(F)F [Comp. 39, reference compound]",,Death rate (%) after 5 days ([6]; 3 ppm): 35%; Death rate (%) after 5 days ([6]; 12.5 ppm): 85%; Death rate (%) after 5 days ([6]; 25 ppm): 99%; Death rate (%) after 5 days ([6]; 50 ppm): 99%
